Results: publication PMC8486872, “A rational blueprint for the design of chemically-controlled protein switches” (Nature Communications, 2021)
Values joined by “and” are separate entries in the source; they are usually repeats but may differ in a detail not shown here. Equal entries are not always repeated.

Test system: SEAP and Luciferase expression in HEK293T cells
Test: SIMO designer cells (AIR-1/2-GEMS + CDH-1/2-TF)
Type: cell-based
Set-up: Bottom (best-fit value) / Top (best-fit value) / Span (best-fit value): unit not given here
Settings: for logIC50 (best-fit value): drug in nM
From the text: Fig. 5 Orthogonal chemical switches enable implementation of multi-input multi-output control modes in mammalian cells. a Scheme of multi-inputs multi-outputs (MIMO) designer cells where two drugs control two different outputs. b, c Cells were co-transfected with AIR-1/2-GEMS and CDH-3-TF regulate SEAP and Luciferase expression, respectively. […] AIR-1/2-GEMS coupled with SEAP expression circuits were co-transfected with CDH-1/2-TF circuits which control the Luciferase production. Respective drug concentrations ranged from 0.001 nM to 1 µM. All values presented are mean ± s.d. of three replicates and curves were fitted by four-parameters nonlinear regression. b, c, e, f, h, i Source data are available in the source data file.
Finally, we engineered SIMO cells (Fig. 5g) using two designed switches that produce ON and OFF responses upon exposure to the same drug. We transfected cells with combinations of AIR-GEMS and CDH-TFs which controlled the expression of the reporter proteins SEAP and Luciferase, respectively. […] Therefore, computational design expanded the repertoire of protein switches controlled by the same compounds that can be used to simultaneous turn ON and OFF synergistic outputs. […]
AIR-1-GEMS coupled with SEAP expression circuits (i) and CDH-1-TF circuits which control the Luciferase production (j). j-k) Quantification of SEAP and Luciferase activities under Drug-2. AIR-2-GEMS coupled with SEAP expression circuits (k) and CDH-2-TF circuits which control the Luciferase production (l). b-k) Each data point represents the mean of n = 3 biological replicates, and the dose-dependent curve were fitted using four-parameter nonlinear regression.

[1] = Fig S13i, CDH-1-TF control Luciferase expression only, Drug-1 0.01 nM
[2] = Fig S13i, CDH-1-TF control Luciferase expression only, Drug-1 10 nM
[3] = Fig S13i, CDH-1-TF control Luciferase expression only, Drug-1 31.6 nM
[4] = Fig S13i, CDH-1-TF control Luciferase expression only, Drug-1 100 nM
[5] = Fig S13i, CDH-1-TF control Luciferase expression only, Drug-1 316 nM
[6] = Fig S13h, AIR-1-GEMS control SEAP expression only, Drug-1 0.01 nM
[7] = Fig S13h, AIR-1-GEMS control SEAP expression only, Drug-1 0.1 nM
[8] = Fig S13h, AIR-1-GEMS control SEAP expression only, Drug-1 1 nM
[9] = Fig S13h, AIR-1-GEMS control SEAP expression only, Drug-1 316 nM
[10] = sheet Figure5h, Luciferase, four-parameter fit
[11] = sheet Figure5h, SEAP, four-parameter fit

Compound: CN(C)CC#Cc1ccc(OCCCc2sc(N3CCc4cccc(C(=O)Nc5nc6ccccc6s5)c4C3)nc2C(=O)O)c(F)c1 [Drug-1, A-1155463]
- SEAP (Fig5h, turn ON via AIR-1-GEMS, 500 nM): 488.063 U/L and 432.803 U/L and 436.708 U/L
- SEAP (Fig5h, turn ON via AIR-1-GEMS, 1000 nM): 411.613 U/L and 466.826 U/L and 364.664 U/L
- Luciferase (Fig5h, via CDH-1-TF, 0.005 nM): 13170 and 13560 and 13671
- Luciferase (Fig5h, via CDH-1-TF, 0.01 nM): 14134 and 13430 and 12324
- Luciferase (Fig5h, via CDH-1-TF, 0.05 nM): 14625 and 13685 and 11174
- Luciferase (Fig5h, via CDH-1-TF, 0.5 nM): 10957 and 11915 and 9777
- Luciferase (Fig5h, via CDH-1-TF, 1 nM): 11394 and 11027 and 9891
- Luciferase (Fig5h, via CDH-1-TF, 5 nM): 9387 and 10202 and 8501
- Luciferase (Fig5h, via CDH-1-TF, 10 nM): 9897 and 9353 and 8698
- Luciferase (Fig5h, via CDH-1-TF, 50 nM): 8493 and 5450 and 4767
- Luciferase (Fig5h, via CDH-1-TF, 100 nM): 6159 and 4105 and 3304
- Luciferase (Fig5h, via CDH-1-TF, 500 nM): 6685 and 4541 and 3781
- Luciferase [1]: 4.631 RLU and 4.974 RLU and 6.289 RLU
- SEAP [1]: 47563 U/L and 58731 U/L and 59991 U/L
- SEAP (Fig S13i, CDH-1-TF control Luciferase expression only, Drug-1 0.1 nM): 53899 U/L and 50028 U/L and 61321 U/L
- SEAP (Fig S13i, CDH-1-TF control Luciferase expression only, Drug-1 1 nM): 51520 U/L and 52067 U/L and 58888 U/L
- SEAP (Fig S13i, CDH-1-TF control Luciferase expression only, Drug-1 3.16 nM): 43654 U/L and 44498 U/L and 55865 U/L
- Luciferase [2]: 5.35 RLU and 3.637 RLU and 4.7853 RLU
- SEAP [2]: 47243 U/L and 36047 U/L and 43911 U/L
- Luciferase [3]: 10.558 RLU and 9.125 RLU and 9.89 RLU
- SEAP [3]: 41739 U/L and 35234 U/L and 36053 U/L
- Luciferase [4]: 6.8735 RLU and 7.9639 RLU and 7.26 RLU
- SEAP [4]: 32885 U/L and 32749 U/L and 33680 U/L
- Luciferase [5]: 7.503 RLU and 9.5502 RLU and 5.763 RLU
- SEAP [5]: 36324 U/L and 29686 U/L and 32588 U/L
- SEAP (Fig S13i, CDH-1-TF control Luciferase expression only, Drug-1 1000 nM): 22215 U/L and 22717 U/L and 21612 U/L
- Luciferase [6]: 7.197 RLU and 7.213 RLU and 7.2493 RLU
- SEAP [6]: 251 U/L and 231 U/L and 325 U/L
- Luciferase [7]: 7.338 RLU and 6.8 RLU and 5.088 RLU
- SEAP [7]: 201 U/L and 203 U/L and 381 U/L
- Luciferase [8]: 9.026 RLU and 10.0168 RLU
- SEAP [8]: 267 U/L and 249 U/L and 441 U/L
- SEAP (Fig S13h, AIR-1-GEMS control SEAP expression only, Drug-1 3.16 nM): 363 U/L and 301 U/L and 409 U/L
- SEAP (Fig S13h, AIR-1-GEMS control SEAP expression only, Drug-1 10 nM): 551 U/L and 601 U/L
- SEAP (Fig S13h, AIR-1-GEMS control SEAP expression only, Drug-1 31.6 nM): 639 U/L and 579 U/L and 471 U/L
- SEAP (Fig S13h, AIR-1-GEMS control SEAP expression only, Drug-1 100 nM): 421 U/L and 435 U/L and 441 U/L
- Luciferase [9]: 232.378 RLU and 215.546 RLU and 184.304 RLU
- SEAP [9]: 301 U/L and 339 U/L and 443 U/L
- Luciferase (Fig S13h, AIR-1-GEMS control SEAP expression only, Drug-1 1000 nM): 239.146 RLU and 224.11 RLU and 201.76 RLU
- Bottom (best-fit value) [10]: 1591
- HillSlope (best-fit value) [10]: -0.5534
- Span (best-fit value) [10]: 8125
- Top (best-fit value) [10]: 9717
- logIC50 (best-fit value) [10]: 1.252
- IC50 (sheet Figure5h, Luciferase, four-parameter fit, read-out: IC50 (best-fit value)): 0.0179 µM
- Bottom (best-fit value) [11]: 10.72
- HillSlope (best-fit value) [11]: 0.8045
- Span (best-fit value) [11]: 94.16
- Top (best-fit value) [11]: 104.9
- logIC50 (best-fit value) [11]: 1.797
